Reference: patent US12522595B2, “Bicyclic ether O-glycoprotein-2-acetamido-2-deoxy-3-D-glucopyranosidase inhibitors” (BIOGEN MA INC., priority 2019, dated 2026)

These molecules were tested against T1, Recombinant full length human OGA enzyme (Homo sapiens, UniProt O60502) (assay: OGA enzyme inhibition biochemical assay). Conditions: 1 nM OGA, 100 μM 4-MUGlcNAc (Km), pH 6.4, 90 minutes at room temperature, 10-point dose-response from 20 μM.
T1 construct: Recombinant full length human OGA enzyme was purchased from Origene; purchased Origene
T1 sequence (O60502 1-916): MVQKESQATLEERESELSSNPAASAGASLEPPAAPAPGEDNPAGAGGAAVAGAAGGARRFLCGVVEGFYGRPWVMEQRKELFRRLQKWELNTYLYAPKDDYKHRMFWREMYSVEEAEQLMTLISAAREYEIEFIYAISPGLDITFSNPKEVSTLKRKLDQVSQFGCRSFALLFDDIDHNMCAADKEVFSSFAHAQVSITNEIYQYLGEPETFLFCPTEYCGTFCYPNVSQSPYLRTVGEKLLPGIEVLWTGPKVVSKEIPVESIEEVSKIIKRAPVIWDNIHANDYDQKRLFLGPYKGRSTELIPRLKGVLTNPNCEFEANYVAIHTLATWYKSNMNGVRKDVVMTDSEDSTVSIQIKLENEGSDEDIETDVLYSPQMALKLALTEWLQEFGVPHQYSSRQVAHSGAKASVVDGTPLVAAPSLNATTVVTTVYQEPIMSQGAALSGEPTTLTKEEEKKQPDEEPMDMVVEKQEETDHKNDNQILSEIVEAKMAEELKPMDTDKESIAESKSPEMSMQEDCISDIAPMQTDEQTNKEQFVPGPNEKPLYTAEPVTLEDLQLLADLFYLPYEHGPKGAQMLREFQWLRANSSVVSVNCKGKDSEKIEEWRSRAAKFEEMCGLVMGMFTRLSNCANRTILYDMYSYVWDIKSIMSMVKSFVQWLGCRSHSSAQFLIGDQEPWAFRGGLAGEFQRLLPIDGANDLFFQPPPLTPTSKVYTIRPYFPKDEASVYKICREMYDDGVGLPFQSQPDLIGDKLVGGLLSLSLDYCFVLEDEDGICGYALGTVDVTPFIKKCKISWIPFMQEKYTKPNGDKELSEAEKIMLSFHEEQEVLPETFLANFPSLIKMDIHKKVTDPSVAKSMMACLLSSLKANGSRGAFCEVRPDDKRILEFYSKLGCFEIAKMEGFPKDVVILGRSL
Description: N-(5-(((2S,4R)-4-([1,2,4]triazolo[4,3-a]pyrazin-3-yloxy)-2-methylpyrrolidin-1-yl)methyl)-4-fluorothiazol-2-yl)acetamide: The title compound was prepared in an analogous manner as Example 172 from 3-bromo-[1,2,4]triazolo[4,3-a]pyrazine. LCMS (ESI): [M+H] 392. ^1H NMR (600 MHz, CHLOROFORM-d) δ 10.75 (br s, 1H), 9.04 (s, 1H), 9.03 (s, 1H), 7.24 (s, 1H), 4.99-5.06 (m, 1H), 4.01 (d, J=14.49 Hz, 1H), 3.64 (d, J=14.67 Hz, 1H), 3.40 (d, J=11.55 Hz, 1H), 2.75 (dd, J=5.78, 11.46 Hz, 1H), 2.61-2.72 (m, 2H), 2.32 (s, 4H), 1.84-1.92 (m, 1H), 1.30 (d, J=5.87 Hz, 4H). ^19F NMR (565 MHz, CHLOROFORM-d) 6-115.92 (br s, 1F). OGA Enzyme Inhibition Biochemical Assay
Recombinant full length human OGA enzyme was purchased from Origene. 4-MUGlCNAc substrate was purchased from Sigma. All other reagents were purchased from Sigma or Fisher. Assay buffer consists of the McIlvaine buffer system, pH 6.4 (0.2M Na2HPO4 mixed with 0.1M citric acid) and 0.01% BSA. Reactions consist of 1 nM OGA, 100 μM 4-MUGlcNAc (Km), and compound in a final volume of 10 μl. Reactions were incubated for 90 minutes at room temperature and quenched with 40 μl of 3M glycine, pH 10 and read on a Perkin Elmer Envision plate reader (Ex: 355 nm/Em: 460 nm). Compounds were tested with a 10-point dose-response starting from 20 μM with a 4-fold dilution. Data, as presented in Table 1 below, was fit using GraphPad Prism using a 4-parameter fit with variable slope.
In the case of `CC(=O)Nc1nc(F)c(CN2C[C@H](Oc3ccc4ncoc4c3)C[C@@H]2C)s1` [Example 76, N-(5-(((2S,4R)-4-(benzo[d]oxazol-6-yloxy)-2-methylpyrrolidin-1-yl)methyl)-4-fluorothiazol-2-yl)acetamide], the IC50 is reported as under 1 nM. `CC(=O)Nc1nc(F)c(CN2C[C@H](Oc3cccn4nccc34)C[C@@H]2C)s1` [Example 141, N-(4-fluoro-5-(((2S,4R)-2-methyl-4-(pyrazolo[1,5-a]pyridin-4-yloxy)pyrrolidin-1-yl)methyl)thiazol-2-yl)acetamide] gave an IC50 of under 1 nM. `CC(=O)Nc1ncc(CN2C[C@H](Oc3ccc4cccnc4n3)C[C@@H]2C)s1` [Example 81, N-(5-(((2S,4R)-4-((1,8-naphthyridin-2-yl)oxy)-2-methylpyrrolidin-1-yl)methyl)thiazol-2-yl)acetamide] was tested, and the IC50 was under 1 nM. With `CC(=O)Nc1nc(F)c(CN2C[C@H](Oc3ccnc4cnn(C)c34)C[C@@H]2C)s1` [Example 135, N-(4-fluoro-5-(((2S,4R)-2-methyl-4-((1-methyl-1H-pyrazolo[4,3-b]pyridin-7-yl)oxy)pyrrolidin-1-yl)methyl)thiazol-2-yl)acetamide] the IC50 was under 1 nM. Molecule `CC(=O)Nc1ncc(CN2C[C@H](Oc3ncnc4ccoc34)C[C@@H]2C)s1` [Example 71, N-(5-(((2S,4R)-4-(furo[3,2-d]pyrimidin-4-yloxy)-2-methylpyrrolidin-1-yl)methyl)thiazol-2-yl)acetamide] has an IC50 of under 1 nM. Work on `CC(=O)Nc1nc(F)c(CN2C[C@H](Oc3ccc4nc(C)nn4c3)C[C@@H]2C)s1` [Example 144, N-(4-fluoro-5-(((2S,4R)-2-methyl-4-((2-methyl-[1,2,4]triazolo[1,5-a]pyridin-6-yl)oxy)pyrrolidin-1-yl)methyl)thiazol-2-yl)acetamide] yielded an IC50 of under 1 nM. Work on `CC(=O)Nc1ncc(CN2C[C@H](Oc3nccn4nc(C(F)(F)F)cc34)C[C@@H]2C)s1` [Example 28, N-(5-(((2S,4R)-2-methyl-4-((2-(trifluoromethyl)pyrazolo[1,5-a]pyrazin-4-yl)oxy)pyrrolidin-1-yl)methyl)thiazol-2-yl)acetamide] yielded an IC50 of 5.4 nM. `CC(=O)Nc1nc(F)c(CN2C[C@H](Oc3cccc4cn(C)nc34)C[C@@H]2C)s1` [Example 161, N-(4-fluoro-5-(((2S,4R)-2-methyl-4-((2-methyl-2H-indazol-7-yl)oxy)pyrrolidin-1-yl)methyl)thiazol-2-yl)acetamide] gave an IC50 of under 1 nM. For `CC(=O)Nc1nc(F)c(CN2C[C@H](Oc3ncnn4cccc34)C[C@@H]2C)s1` [Example 106, N-(4-fluoro-5-(((2S,4R)-2-methyl-4-(pyrrolo[2,1-f][1,2,4]triazin-4-yloxy)pyrrolidin-1-yl)methyl)thiazol-2-yl)acetamide], the IC50 was under 1 nM. In the case of `CC(=O)Nc1nc(F)c(CN2C[C@H](Oc3noc4cc(F)ccc34)C[C@@H]2C)s1` [Example 126, N-(4-fluoro-5-(((2S,4R)-4-((6-fluorobenzo[d]isoxazol-3-yl)oxy)-2-methylpyrrolidin-1-yl)methyl)thiazol-2-yl)acetamide], the IC50 is reported as 3.1 nM. `CC(=O)Nc1ncc(CN2C[C@H](Oc3nccc4sccc34)C[C@@H]2C)s1` [Example 24, N-(5-(((2S,4R)-2-methyl-4-(thieno[3,2-c]pyridin-4-yloxy)pyrrolidin-1-yl)methyl)thiazol-2-yl)acetamide] gave an IC50 of 2.5 nM. In the case of `CC(=O)Nc1nc(F)c(CN2C[C@H](Oc3ccnc4cc(F)cnc34)C[C@@H]2C)s1` [Example 129, N-(4-fluoro-5-(((2S,4R)-4-((7-fluoro-1,5-naphthyridin-4-yl)oxy)-2-methylpyrrolidin-1-yl)methyl)thiazol-2-yl)acetamide], the IC50 is reported as under 1 nM. Work on `CC(=O)Nc1nc(F)c(CN2C[C@H](Oc3cccc4nccn34)C[C@@H]2C)s1` [Example 64, N-(4-fluoro-5-(((2S,4R)-4-(imidazo[1,2-a]pyridin-5-yloxy)-2-methylpyrrolidin-1-yl)methyl)thiazol-2-yl)acetamide] yielded an IC50 of under 1 nM. For `CC(=O)Nc1nc(F)c(CN2C[C@H](Oc3ccc4occc4n3)C[C@@H]2C)s1` [Example 66, N-(4-fluoro-5-(((2S,4R)-4-(furo[3,2-b]pyridin-5-yloxy)-2-methylpyrrolidin-1-yl)methyl)thiazol-2-yl)acetamide], the IC50 was under 1 nM. `CC(=O)Nc1nc(F)c(CN2C[C@H](Oc3cccc4nn(C)cc34)C[C@@H]2C)s1` [Example 84, N-(4-fluoro-5-(((2S,4R)-2-methyl-4-((2-methyl-2H-indazol-4-yl)oxy)pyrrolidin-1-yl)methyl)thiazol-2-yl)acetamide] showed an IC50 of under 1 nM. Molecule `CC(=O)Nc1ncc(CN2C[C@H](Oc3cncc4nccn34)C[C@@H]2C)s1` [Example 99, N-(5-(((2S,4R)-4-(imidazo[1,2-a]pyrazin-5-yloxy)-2-methylpyrrolidin-1-yl)methyl)thiazol-2-yl)acetamide] has an IC50 of under 1 nM. Work on `CC(=O)Nc1nc(F)c(CN2C[C@H](Oc3ccc4c(nnn4C)n3)C[C@@H]2C)s1` [Example 152, N-(4-fluoro-5-(((2S,4R)-2-methyl-4-((1-methyl-1H-[1,2,3]triazolo[4,5-b]pyridin-5-yl)oxy)pyrrolidin-1-yl)methyl)thiazol-2-yl)acetamide] yielded an IC50 of under 1 nM. In the case of `CC(=O)Nc1ncc(CN2C[C@H](Oc3ccnc4ccoc34)C[C@@H]2C)s1` [Example 48, N-(5-(((2S,4R)-4-(furo[3,2-b]pyridin-7-yloxy)-2-methylpyrrolidin-1-yl)methyl)thiazol-2-yl)acetamide], the IC50 is reported as under 1 nM. `CC(=O)Nc1ncc(CN2C[C@H](Oc3ccn4ccnc4c3)C[C@@H]2C)s1` [Example 42, N-(5-(((2S,4R)-4-(imidazo[1,2-a]pyridin-7-yloxy)-2-methylpyrrolidin-1-yl)methyl)thiazol-2-yl)acetamide] was tested, and the IC50 was under 1 nM. Work on `COc1cccn2nc(O[C@@H]3C[C@H](C)N(Cc4sc(NC(C)=O)nc4F)C3)nc12` [Example 148, N-(4-fluoro-5-(((2S,4R)-4-((8-methoxy-[1,2,4]triazolo[1,5-a]pyridin-2-yl)oxy)-2-methylpyrrolidin-1-yl)methyl)thiazol-2-yl)acetamide] yielded an IC50 of under 1 nM. For `CC(=O)Nc1nc(F)c(CN2C[C@H](Oc3ccn4cnnc4c3)C[C@@H]2C)s1` [Example 146, N-(5-(((2S,4R)-4-([1,2,4]triazolo[4,3-a]pyridin-7-yloxy)-2-methylpyrrolidin-1-yl)methyl)-4-fluorothiazol-2-yl)acetamide], the IC50 was under 1 nM. `CC(=O)Nc1ncc(CN2C[C@H](Oc3ccc4c(Cl)nccc4c3)C[C@@H]2C)s1` [Example 1, N-(5-(((2S,4R)-4-((1-chloroisoquinolin-6-yl)oxy)-2-methylpyrrolidin-1-yl)methyl)thiazol-2-yl)acetamide] showed an IC50 of under 1 nM. For `CC(=O)Nc1ncc(CN2C[C@H](Oc3nc4ccccc4cc3C#N)C[C@@H]2C)s1` [Example 37, N-(5-(((2S,4R)-4-((3-cyanoquinolin-2-yl)oxy)-2-methylpyrrolidin-1-yl)methyl)thiazol-2-yl)acetamide], the IC50 was 16 nM. `CC(=O)Nc1nc(F)c(CN2C[C@H](Oc3ccc4ccn(C)c4n3)C[C@@H]2C)s1` [Example 163, N-(4-fluoro-5-(((2S,4R)-2-methyl-4-((1-methyl-1H-pyrrolo[2,3-b]pyridin-6-yl)oxy)pyrrolidin-1-yl)methyl)thiazol-2-yl)acetamide] showed an IC50 of under 1 nM. Molecule `CC(=O)Nc1ncc(CN2C[C@H](Oc3nccc4nccn34)C[C@@H]2C)s1` [Example 97, N-(5-(((2S,4R)-4-(imidazo[1,2-c]pyrimidin-5-yloxy)-2-methylpyrrolidin-1-yl)methyl)thiazol-2-yl)acetamide] has an IC50 of under 1 nM.
